Measurements: patent US11254668B2, “Pyrazolo[1,5-A]pyrazin-4-yl and related derivatives” (Pfizer Inc., priority 2017, dated 2022)
Where two headings read alike, the source gives them in different places.

Key:
Assay type in all cases: biochemical
TYK2 = TYK2 (Homo sapiens (Human), UniProt P29597); test: JAK Caliper Enzyme Assay at 1 mM ATP, TYK2
Summary of the method: (§1)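 Recombinant human kinase domains phosphorylate a fluorescent synthetic peptide at 1 mM ATP and room temperature, with enzyme level and time tuned to 20–30% conversion before an EDTA stop. Microfluidic mobility-shift separation gives percent product from peak heights. Percent effect against plate controls (DMSO baseline) is plotted versus compound concentration.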

JAK1 = JAK1 (Homo sapiens (Human), UniProt P23458); test: JAK Caliper Enzyme Assay at 1 mM ATP, JAK1
Summary of the method: (§2)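 Recombinant human kinase domains phosphorylated a fluorescent synthetic peptide at room temperature, with enzyme level and time tuned to 20% to 30% conversion; EDTA stop buffer ended reactions. Mobility-shift separation gave percent product from peak heights, normalised to DMSO and positive controls, and IC50s came from concentration–effect curves.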

JAK2 = JAK2 (Homo sapiens (Human), UniProt O60674); test: JAK Caliper Enzyme Assay at 1 mM ATP, JAK2
Summary of the method: as §1

JAK3 = JAK3 (Homo sapiens (Human), UniProt P52333); test: JAK Caliper Enzyme Assay at 1 mM ATP, JAK3
Summary of the method: as §2

Sequence of JAK2 (O60674 849-1124): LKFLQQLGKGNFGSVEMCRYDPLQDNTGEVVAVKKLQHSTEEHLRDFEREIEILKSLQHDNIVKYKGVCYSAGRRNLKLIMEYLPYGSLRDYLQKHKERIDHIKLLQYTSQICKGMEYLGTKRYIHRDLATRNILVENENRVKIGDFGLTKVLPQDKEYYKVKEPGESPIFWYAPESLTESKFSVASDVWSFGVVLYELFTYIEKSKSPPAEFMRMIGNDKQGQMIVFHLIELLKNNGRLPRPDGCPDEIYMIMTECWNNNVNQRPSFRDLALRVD
Sequence of JAK1 (P23458 875-1153): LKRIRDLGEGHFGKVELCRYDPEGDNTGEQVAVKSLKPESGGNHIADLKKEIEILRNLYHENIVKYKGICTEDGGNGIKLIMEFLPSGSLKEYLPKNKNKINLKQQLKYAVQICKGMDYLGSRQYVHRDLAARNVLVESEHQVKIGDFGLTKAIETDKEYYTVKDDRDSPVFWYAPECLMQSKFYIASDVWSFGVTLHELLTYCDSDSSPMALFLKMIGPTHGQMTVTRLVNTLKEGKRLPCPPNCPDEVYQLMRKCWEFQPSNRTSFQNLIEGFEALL
Sequence of TYK2 (P29597 897-1176): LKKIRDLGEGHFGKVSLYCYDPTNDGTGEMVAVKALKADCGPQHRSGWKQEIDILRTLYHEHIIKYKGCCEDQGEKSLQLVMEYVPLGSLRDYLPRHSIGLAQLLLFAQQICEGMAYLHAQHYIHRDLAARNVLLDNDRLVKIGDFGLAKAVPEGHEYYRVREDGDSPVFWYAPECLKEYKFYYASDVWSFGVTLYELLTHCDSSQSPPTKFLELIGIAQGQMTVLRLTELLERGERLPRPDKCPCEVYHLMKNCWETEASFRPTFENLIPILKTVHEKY
Sequence of JAK3 (P52333 822-1111): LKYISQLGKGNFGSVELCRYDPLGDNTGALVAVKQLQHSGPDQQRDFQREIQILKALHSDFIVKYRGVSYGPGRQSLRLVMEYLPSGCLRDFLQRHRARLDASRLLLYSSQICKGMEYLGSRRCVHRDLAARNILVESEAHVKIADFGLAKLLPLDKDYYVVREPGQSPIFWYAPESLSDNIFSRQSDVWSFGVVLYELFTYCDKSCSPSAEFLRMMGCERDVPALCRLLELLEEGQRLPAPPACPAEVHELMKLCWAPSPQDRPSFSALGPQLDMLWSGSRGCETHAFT

IC50 (TYK2) [nM]	IC50 (JAK1) [nM]	IC50 (JAK2) [nM]	IC50 (JAK3) [nM]	IC50 (TYK2; JAK Caliper enzyme assay) [nM]	IC50 (JAK1; JAK Caliper enzyme assay) [nM]	IC50 (JAK2; JAK Caliper enzyme assay) [nM]	IC50 (JAK3; JAK Caliper enzyme assay) [nM]	Compound
				113	1560	353	> 10000	N#CCC1(n2ncc(-c3cc(-c4cnc5cccnn45)cc4ncccc34)n2)CC(C#N)C1 (stereo not drawn) [Example 421, cis-3-(cyanomethyl)-3-{4-[7-(imidazo[1,2-b]pyridazin-3-yl)quinolin-5-yl]-2H-1,2,3-triazol-2-yl}cyclobutanecarbonitrile]
20	489	34	2020					Cn1cc(-c2cc3ncccc3c(-c3ccn([C@]4(CC#N)C[C@@H](C#N)C4)n3)n2)c(CO)n1 [Example 135, trans-3-(cyanomethyl)-3-(3-{7-[3-(hydroxymethyl)-1-methyl-1H-pyrazol-4-yl]-1,6-naphthyridin-5-yl}-1H-pyrazol-1-yl)cyclobutanecarbonitrile]
				1100	> 10000	> 10000	> 10000	CS(=O)(=O)N1CC(CC#N)(n2ncc(-c3cc(-c4ccc(F)cc4O)cc4ncccc34)n2)C1 [Example 441, [3-{4-[7-(4-fluoro-2-hydroxyphenyl)quinolin-5-yl]-2H-1,2,3-triazol-2-yl}-1-(methylsulfonyl)azetidin-3-yl]acetonitrile]
130	661	126	> 10000					CO[C@H]1C[C@@](CC#N)(n2cc(-c3nc(-c4cnn(CCO)c4)cc4ncccc34)cn2)C1 [Example 8, [cis-1-(4-{7-[1-(2-hydroxyethyl)-1H-pyrazol-4-yl]-1,6-naphthyridin-5-yl}-1H-pyrazol-1-yl)-3-methoxycyclobutyl]acetonitrile]
67	2960	834	> 10000					CS(=O)(=O)N1CC(CC#N)(n2ncc(-c3cc(-c4ccc(N)nc4)cc4ncccc34)n2)C1 [Example 364, [3-{4-[7-(6-aminopyridin-3-yl)quinolin-5-yl]-2H-1,2,3-triazol-2-yl}-1-(methylsulfonyl)azetidin-3-yl]acetonitrile]
19	87	46	4330					N#CC[C@]1(n2ccc(-c3nc(-c4ccnc(CO)c4)cc4ncccc34)n2)C[C@@H](C#N)C1 [Example 213, cis-3-(cyanomethyl)-3-(3-{7-[2-(hydroxymethyl)pyridin-4-yl]-1,6-naphthyridin-5-yl}-1H-pyrazol-1-yl)cyclobutanecarbonitrile]
119	2050	815	> 10000					N#CCC1(n2ccc(-c3nc(-c4nc(CO)cs4)cc4ncccc34)n2)CC(C#N)C1 (stereo not drawn) [Example 156, cis-3-(cyanomethyl)-3-(3-{7-[4-(hydroxymethyl)-1,3-thiazol-2-yl]-1,6-naphthyridin-5-yl}-1H-pyrazol-1-yl)cyclobutanecarbonitrile]
				17	180	160	9400	N#CC[C@]1(n2ncc(-c3cc(-c4ccc(-c5nnn[nH]5)cc4)cc4ncccc34)n2)C[C@@H](C#N)C1 [Example 447, cis-3-(cyanomethyl)-3-(4-{7-[4-(1H-tetrazol-5-yl)phenyl]quinolin-5-yl}-2H-1,2,3-triazol-2-yl)cyclobutanecarbonitrile]
				35	575	93	9500	Cc1nc(-c2cc(-c3cnn([C@]4(CC#N)C[C@H](C#N)C4)n3)c3cccnc3c2)ccc1CCO [Example 378, cis-3-(cyanomethyl)-3-(4-{7-[5-(2-hydroxyethyl)-6-methylpyridin-2-yl]quinolin-5-yl}-2H-1,2,3-triazol-2-yl)cyclobutanecarbonitrile]
115	3530	620	> 10000					CO[C@H]1C[C@@](CC#N)(n2ccc(-c3nc(-c4cnn(CCO)c4)cc4ncccc34)n2)C1 [Example 128, [cis-1-(3-{7-[1-(2-hydroxyethyl)-1H-pyrazol-4-yl]-1,6-naphthyridin-5-yl}-1H-pyrazol-1-yl)-3-methoxycyclobutyl]acetonitrile]
24	285	56	9270					CS(=O)(=O)c1ccc(-c2cc3ncccc3c(-c3ccn(C4(CC#N)CC(C#N)C4)n3)n2)cn1 (stereo not drawn) [Example 207, cis-3-(cyanomethyl)-3-(3-{7-[6-(methylsulfonyl)pyridin-3-yl]-1,6-naphthyridin-5-yl}-1H-pyrazol-1-yl)cyclobutanecarbonitrile]

Second part, the compound before the results:

Compound	IC50 (TYK2) [nM]	IC50 (JAK1) [nM]	IC50 (JAK2) [nM]	IC50 (JAK3) [nM]	IC50 (TYK2; JAK Caliper enzyme assay) [nM]	IC50 (JAK1; JAK Caliper enzyme assay) [nM]	IC50 (JAK2; JAK Caliper enzyme assay) [nM]	IC50 (JAK3; JAK Caliper enzyme assay) [nM]
Cc1cc(-c2cc3ncccc3c(-c3ccn(C4(CC#N)CN(S(C)(=O)=O)C4)n3)n2)ccn1 [Example 174, [3-{3-[7-(2-methylpyridin-4-yl)-1,6-naphthyridin-5-yl]-1H-pyrazol-1-yl}-1-(methylsulfonyl)azetidin-3-yl]acetonitrile]	49	785	332	> 10000				
CS(=O)(=O)Nc1ccc(-c2cc3ncccc3c(-c3ccn(C4(CC#N)CN(S(C)(=O)=O)C4)n3)n2)cn1 [Example 205, N-[5-(5-{1-[3-(cyanomethyl)-1-(methylsulfonyl)azetidin-3-yl]-1H-pyrazol-3-yl}-1,6-naphthyridin-7-yl)pyridin-2-yl]methanesulfonamide]	17	120	149	> 10000				
N#CCC1(n2cc(-c3nc(-c4cnn(C5CCOCC5)c4)cc4ncccc34)cn2)CN(CC(F)(F)F)C1 [Example 11, [3-(4-{7-[1-(tetrahydro-2H-pyran-4-yl)-1H-pyrazol-4-yl]-1,6-naphthyridin-5-yl}-1H-pyrazol-1-yl)-1-(2,2,2-trifluoroethyl)azetidin-3-yl]acetonitrile]	21	70	14	2620				
Cn1cc(-c2cc(-c3cnn(C4(CC#N)CN(CC(F)(F)F)C4)c3)n3ccnc3c2)cn1 [Example 457, [3-{4-[7-(1-methyl-1H-pyrazol-4-yl)imidazo[1,2-a]pyridin-5-yl]-1H-pyrazol-1-yl}-1-(2,2,2-trifluoroethyl)azetidin-3-yl]acetonitrile]					252	> 10000	3940	> 10000
N#CC[C@]1(n2ncc(-c3cc(-c4cccc(C(=O)O)n4)cc4ncccc34)n2)C[C@H](C#N)C1 [Example 370, 6-(5-{2-[cis-3-cyano-1-(cyanomethyl)cyclobutyl]-2H-1,2,3-triazol-4-yl}quinolin-7-yl)pyridine-2-carboxylic acid]	30	2290	345	> 10000				
CO[C@H]1C[C@@](CC#N)(n2ccc(-c3nc(-c4cnn(C5COC5)c4)cc4ncccc34)n2)C1 [Example 122, [cis-3-methoxy-1-(3-{7-[1-(oxetan-3-yl)-1H-pyrazol-4-yl]-1,6-naphthyridin-5-yl}-1H-pyrazol-1-yl)cyclobutyl]acetonitrile]	110	6660	391	> 10000				
CCN1CC(CC#N)(n2ccc(-c3nc(N4CCOCC4)cc4ncccc34)n2)C1 [Example 264, (1-ethyl-3-{3-[7-(morpholin-4-yl)-1,6-naphthyridin-5-yl]-1H-pyrazol-1-yl}azetidin-3-yl)acetonitrile]	6990	> 10000	> 10000	> 10000				
CC(=O)NC1CC(CC#N)(n2ccc(-c3nc(-c4cc[nH]n4)cc4ncccc34)n2)C1 (stereo not drawn) [Example 32, N-[trans-3-(cyanomethyl)-3-{3-[7-(1H-pyrazol-3-yl)-1,6-naphthyridin-5-yl]-pyrazol-1-yl}cyclobutyl]acetamide]	730	5830	3430	> 10000				
CC(C)(O)[C@H]1C[C@@](CC#N)(n2ccc(-c3nc(-c4cc[nH]n4)cc4ncccc34)n2)C1 [Example 40, [cis-3-(2-hydroxpropan-2-yl)-1-{3-[7-(1H-pyrazol-3-yl)-1,6-naphthyridin-5-yl]-1H-pyrazol-1-yl}cyclobutyl]acetonitrile]	730	7300	4590	> 10000				
Cc1n[nH]cc1-c1cc2ncccc2c(-c2ccn(C3(CC#N)CN(S(C)(=O)=O)C3)n2)n1 [Example 88, [3-{3-[7-(3-methyl-1H-pyrazol-4-yl)-1,6-naphthyridin-5-yl]-1H-pyrazol-1-yl}-1-(methylsulfonyl)azetidin-3-yl]acetonitrile]	60	1620	875	> 10000				
Cc1ccc(-c2cc3ncccc3c(-c3ccn(C4(CC#N)CN(CC(F)(F)F)C4)n3)n2)cn1 [Example 177, [3-{3-[7-(6-methylpyridin-3-yl)-1,6-naphthyridin-5-yl]-1H-pyrazol-1-yl}-1-(2,2,2-trifluoroethyl)azetidin-3-yl]acetonitrile]	58	2610	794	> 10000				
N#CCC1(n2ccc(-c3nc(-c4ccn[nH]4)cc4ncccc34)n2)CN(S(=O)(=O)C2COC2)C1 [Example 19, [1-(oxetan-3-ylsulfonyl)-3-{3-[7-(1H-pyrazol-5-yl)-1,6-naphthyridin-5-yl]-1H-pyrazol-1-yl}azetidin-3-yl]acetonitrile]	26	175	188	9910				
Cc1cc(-c2cc3ncccc3c(-c3ccn(C4(CC#N)CN(CC(F)(F)F)C4)n3)n2)c[nH]c1=O [Example 250, [3-{3-[7-(5-methyl-6-oxo-1,6-dihydropyridin-3-yl)-1,6-naphthyridin-5-yl]-1H-pyrazol-1-yl}-1-(2,2,2-trifluoroethyl)azetidin-3-yl]acetonitrile]	55	1260	821	> 10000				
